The source of these data is ChEMBL document CHEMBL3817759, “Novel drug design for Chagas disease via targeting Trypanosoma cruzi tubulin: Homology modeling and binding pocket prediction on Trypanosoma cruzi tubulin polymerization inhibition by naphthoquinone derivatives” (Bioorg Med Chem, 2016).

Assay [1] in a line: Inhibition of Trypanosoma cruzi tubulin polymerization incubated at room temperature for 15 mins followed by 5 mins at 4 degC in presence of GTP by photometric method.
In the next assay the test system is Trypanosoma cruzi. The experiment in a line: Antitrypanosomal activity against epimastigote stage of Trypanosoma cruzi Tulahuen CL98 after 48 hrs by hemocytometry. The following applies: Tulahuen CL98, 48 h. Format: functional, organism-based.

Each structure is given as a SMILES string. pIC50: −log10 of the molar value.

On to `O=C1C(Cl)=C(N(C(=O)CCl)C(=O)CCl)C(=O)c2ccccc21`, for which the pIC50 in assay [1] is less than 4.40; in the assay on Trypanosoma cruzi, 5.21.

As for `O=C1C(Cl)=C(N(C(=O)c2cccc(Cl)c2)C(=O)c2cccc(Cl)c2)C(=O)c2ccccc21`, the pIC50 was 5.10 in assay [1] and 5.65 with Trypanosoma cruzi.

For the compound `O=C1C(Cl)=C(N2C(=O)c3ccccc3C2=O)C(=O)c2ccccc21`, the values for the pIC50 (in assay [1]; in the assay with Trypanosoma cruzi) were 4.92 and 5.32, respectively.

In the case of `CC1CS(=O)(=O)CCN1/N=C/c1ccc([N+](=O)[O-])o1` (stereo unspecified) [NIFURTIMOX], the pIC50 in the assay with Trypanosoma cruzi is 4.97.

With `O=C1C(Cl)=C(N2C(=O)CCC2=O)C(=O)c2ccccc21`, the negative logarithm of the IC50 (pIC50) in assay [1] was 5.22; with Trypanosoma cruzi, 5.56.

In the case of `CCCC(=O)N(C(=O)CCC)C1=C(Cl)C(=O)c2ccccc2C1=O`, the pIC50 was 5.49 in assay [1] and 6.15 in the assay with Trypanosoma cruzi.
